One data set relates to DMS53 SCLC cell line. The experiment in a line: SN-38 in vitro growth and viability assay. The class given is cell-based.
In a further data set the test system is DMS114 SCLC cell line. The procedure: (§1) Irinotecan liposome injection was administered intravenously to mice bearing xenograft tumors. At 24 hours post administration, mice were sacrificed and tumors were harvested. Irinotecan and SN-38 in tumors were measured by high performance liquid chromatography (HPLC). Data were normalized to injected dose per tumor weight. […] Cell growth inhibition kinetics of SN-38 in the cell lines was determined using IncuCyte® ZOOM System.

Data set [1] concerns NCI-H1048 SCLC cell line. On the procedure: as §1
The next data set concerns SW1271 SCLC cell line. Description: SN-38 in vitro growth and viability assay. The data set is classed as cell-based.
Another data set has as its system DMS-114 SCLC cell line. The experiment in a line: Cell growth inhibition kinetics, IncuCyte ZOOM System. The data set is classed as cell-based. As to conditions: DMS-114, time-course of 88 hours.
The test system of data set [2] is NCI-H1048 SCLC cell line. Described as above. The data set is classed as cell-based. As to conditions: NCI-H1048, time-course of 88 hours.
Data set [3] has as its system NCI-H1048 xenograft. Description: Second line SCLC model: NCI-H1048 after carboplatin plus etoposide. As to conditions: weekly: nal-IRI 16 mg/kg IV; irinotecan 33 mg/kg IV; topotecan 1.66 mg/kg/wk IP days 1 and 2. The class given is in vivo. On the procedure:
As described below, mice bearing NCI-H1048 SCLC tumors were treated with a carboplatin plus etoposide, a first line regimen in SCLC. Once the tumors escaped growth control by carboplatin plus etoposide, mice were randomized to either continue treatment with carboplatin plus etoposide or switch to second line treatment with either irinotecan liposome injection, non-liposomal irinotecan or topotecan.
NOD/SCID mice with NCIH1048 SCLC xenograft tumors were treated weekly with the combination of 30 mg/kg carboplatin plus 25 mg/kg etoposide. […] . […] . […] . FIG. 21B is a survival graph for mice on each of the treatments.

For data set [4], the system named is small cell lung cancer (SCLC). Conditions: second line SCLC, cited from earlier work; for grade 3 or greater diarrhea / grade 3 or greater neutropenia rates / overall response rates / overall survival (OS) / progression free survival (PFS): topotecan 1.5 mg/m^2 days 1-5 every 3 weeks, non-liposomal irinotecan 300 mg/m^2 every 3 weeks; for overall survival: certain regimens.

In data set [5] the test system is DMS-114 xenograft. Description: DMS-114 SCLC xenograft, NOD/SCID mice.
Data set [6] concerns NCI-H1048 xenograft. Description: NCI-H1048 SCLC xenograft, treatment naive. As to conditions: for anti-tumor activity / response (in words): NCI-H1048, irinotecan 33 mg/kg IV, weekly.
The subject of data set [7] is DMS-114 xenograft. Description: DMS-114 xenograft, topotecan-treated tumors. As to conditions: nal-IRI 16 mg/kg; irinotecan 33 mg/kg.
A further data set deals with DMS-53 xenograft. The experiment in a line: DMS-53 SCLC xenograft. As to conditions: nal-IRI 16 mg/kg IV, topotecan 0.83 mg/kg/wk days 1-2, weekly.
Where [8] appears, read: nal-IRI 16 mg/kg IV, topotecan 0.83 mg/kg/wk days 1-2 IP.

The source of these data is patent publication US11318131B2, “Nanoliposomal irinotecan for use in treating small cell lung cancer” (Ipsen Biopharm Ltd., priority 2015, dated 2022).

Structures are written as SMILES. Read-outs that look alike come from different tables or passages of the source.

Consider `CCc1c2c(nc3ccc(O)cc13)-c1cc3c(c(=O)n1C2)COC(=O)[C@]3(O)CC` [SN-38], for which the “decrease in cell viability” value with DMS53 SCLC cell line, in the data set with DMS114 SCLC cell line, in the data set on NCI-H1048 SCLC cell line [1] and with SW1271 SCLC cell line was more than 90% in each case. Further, the “concentration with cell killing after prolonged incubation times” value in the data set with DMS-114 SCLC cell line and in the data set with NCI-H1048 SCLC cell line [2] was not below 10 nM in each case. Besides, the “concentration with effective cell growth inhibition” value with DMS-114 SCLC cell line and with NCI-H1048 SCLC cell line [2] was 1 to 10 nM in each case.

Consider `CCc1c2c(nc3ccc(OC(=O)N4CCC(N5CCCCC5)CC4)cc13)-c1cc3c(c(=O)n1C2)COC(=O)[C@]3(O)CC` [non-liposomal irinotecan, (S)-4,11-diethyl-3,4,12,14-tetrahydro-4-hydroxy-3,14-dioxo1H-pyrano[3′,4′:6,7]-indolizino[1,2-b]quinolin-9-yl-[1,4′bipiperidine]-1′-carboxylate], for which the “anti-tumor activity in carboplatin plus etoposide-treated SCLC tumors (in words)” value in the data set with NCI-H1048 xenograft [3] is recorded as “active but after 3rd cycle some tumors are trending regrowth”. Also, in [4], the “grade 3 or greater diarrhea” value is recorded as 0-13%, the “grade 3 or greater neutropenia rates” value is recorded as 21-23%, the overall response rates was 0-33% and the “overall survival (OS)” value is on record as 4.6-6.9 months. Also, the “progression free survival (PFS)” value in [4] is recorded as 1.7-2.8 months. For the same compound, the “anti-tumor activity / response (in words)” value with DMS-114 xenograft [5] (DMS-114, nal-IRI 16 mg/kg IV, irinotecan 33 mg/kg IV, topotecan 0.83 mg/kg/wk days 1-2 IP, weekly) is “became less responsive after 2-3 cycles”. In addition, in the data set on NCI-H1048 xenograft [6] (setting [8]), the “anti-tumor activity / response (in words)” value is “progress after initially responding to treatment”. Moreover, the “responsiveness of topotecan-treated DMS114 tumors” value with DMS-114 xenograft [7] is reported as “not”.

Take `CC[C@@]1(O)C(=O)OCc2c1cc1n(c2=O)Cc2cc3c(CN(C)C)c(O)ccc3nc2-1` [topotecan]: the “anti-tumor activity in carboplatin plus etoposide-treated SCLC tumors (in words)” value in the data set with NCI-H1048 xenograft [3] is recorded as “seems to be active after 1-2 cycles but progress quickly after 3rd dose”. Further, the overall survival in [4] (all patients) is 7.8 months. Moreover, in [4] (refractory patients), the overall survival was 5.7 months. In addition, in data set [4] (sensitive patients), the overall survival is 9.9 months. In data set [4], the “grade 3 or greater diarrhea” value is “less than 5%”, the “grade 3 or greater neutropenia rates” value was 28-88%, the overall response rates is given as 7-24% and the “overall survival (OS)” value was 5.0-8.9 months. In addition, the “progression free survival (PFS)” value in [4] is reported as 3.1-3.7 months. For the same compound, the “anti-tumor activity / response (in words)” value in the data set on DMS-53 xenograft is given as “limited tumor growth control”. Besides, in the data set on DMS-114 xenograft [5] (same dose intensity, FIG. 15 (DMS-114, NCI-H1048)), the “anti-tumor activity of bolus (day 1) compared to fractionated (days 1 & 2) dosing” value is on record as “less anti-tumor activity”. In the data set with NCI-H1048 xenograft [6] (Example 11, nal-IRI 16 mg/kg salt q1w, topotecan 0.83 mg/kg/week Day 1-2), the “mice with complete tumor regressions after 4 cycles of treatment” value is recorded as 0 out of 7. The “mice with complete regressions of their tumors” value in the data set with NCI-H1048 xenograft [6] (Example 15, n=10, nal-IRI 16 mg/kg IV, topotecan 0.83 mg/kg/wk days 1-2 IP) is 0 out of 10. Further, in the data set on NCI-H1048 xenograft [6] (setting [8]), the “anti-tumor activity / response (in words)” value is “limited tumor growth control”.
